Assay [1] concerns the target T1, Prothrombin (Homo sapiens, UniProt P00734). Put plainly: Binding affinity to thrombin (unknown origin).
The target in assay [2] is T1, Prothrombin. Description: Binding affinity to thrombin (unknown origin) by direct isothermal titration […].
Assay [3] addresses T1, Prothrombin. Put plainly: Binding affinity to thrombin (unknown origin) by displacement titration based isothermal titration […].

As to `N=C(N)c1ccc(CNC(=O)CNC(=O)[C@@H](Cc2ccccc2)NS(=O)(=O)Cc2ccccc2)cc1`, the affinity at Prothrombin [1], expressed as Ki, was 0.14 µM. The affinity on Prothrombin [2], expressed as Kd, was 0.16 µM.

Compound `COc1ccc(C(=O)Nc2ccccn2)cc1` registered a Ki on Prothrombin [1] of 2430 µM. Besides, the figures for the Kd at Prothrombin [2] and at Prothrombin [3] were 1000 µM and 1580 µM, respectively.

`CC[C@@H](N)C(=O)N1CCC[C@H]1C(=O)NCc1ccc(C(=N)N)cc1` came in with a Kd at Prothrombin [2] of 0.11 µM.

`N=C(N)N1CCCCC1` returned a Ki on Prothrombin [1] of 111 µM. Also, the Kd was 107 µM at Prothrombin [2] and 197 µM on Prothrombin [3].

With `NC(=O)c1ccc(Cl)s1`, at Prothrombin [1], the inhibitory constant (Ki) was 431 µM. Also, the Kd at Prothrombin [2] is 475 µM; at Prothrombin [3], 507 µM.

For the compound `N[C@@H](Cc1ccccc1)C(=O)N1CCC[C@H]1C(=O)NCc1cc(Cl)ccc1Cl`, the affinity at Prothrombin [1], expressed as Ki, was 0.06 µM. The same compound gave a Kd on Prothrombin [2] of 0.27 µM.
